Molecules are shown by their SMILES. Bounds are passed on as bounds.

Chain of hGPR88 receptor (Q9GZN0 whole entry): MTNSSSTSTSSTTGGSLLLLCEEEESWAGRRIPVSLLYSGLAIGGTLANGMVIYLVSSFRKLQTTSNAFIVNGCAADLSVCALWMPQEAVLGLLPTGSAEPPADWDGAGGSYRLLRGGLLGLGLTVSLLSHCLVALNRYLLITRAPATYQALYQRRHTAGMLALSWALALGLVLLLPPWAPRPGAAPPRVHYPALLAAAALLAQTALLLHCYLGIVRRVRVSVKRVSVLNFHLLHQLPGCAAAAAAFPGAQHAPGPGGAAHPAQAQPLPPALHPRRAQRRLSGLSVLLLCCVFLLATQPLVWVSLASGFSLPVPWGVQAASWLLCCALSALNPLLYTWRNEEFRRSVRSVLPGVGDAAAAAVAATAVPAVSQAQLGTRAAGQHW

This test has as its target hGPR88 receptor (Homo sapiens, UniProt Q9GZN0). Put plainly: hGPR88-HEK cAMP accumulation assay. The conditions noted are these: GRP88 agonist activity (EC50), HEK-293 cells expressing human recombinant GPR88, forskolin 200 nM, High/Medium/Low bands. On the technique in general: Cyclic AMP is a second messenger, typically raised through Gs and lowered through Gi signalling.
Procedure: Biological Assay 1: hGPR88-HEK cAMP Accumulation Assay
Cryopreserved vials of HEK-293 cells expressing human recombinant GPR88 receptor are re-suspended in KRH assay buffer and 5 μl of cell solution is suspended in test wells at a seeding density of 2500±500 cells per well using the multidrop to provide a final reaction volume of 10 μl containing 0.5% DMSO. Assay plate is incubated for 30 min at room temperature and the reaction is terminated by addition of 5 μl of each of the cAMP detection reagents of the cAMP Gi kit (Cisbio Bioassays, 62AM9PEJ), diluted in cell lysis buffer, to each well using the multidrop in the following order: first the cAMP-d2 conjugate, then the anti-cAMP cryptate conjugate. […] Raw counts were converted to cAMP concentrations via a standard curve before EC50 and Emax determination. Data is expressed as % decrease in forskolin stimulated cAMP compared to cells treated with vehicle alone in the same buffer and on the same plate.
As a reminder, the EC50 is the concentration at which the effect is half-maximal. In the case of `Cc1ncc(-c2ccc(NC(=O)C(C)(C)Oc3ccc(F)cc3)cc2)cn1` [Example 24, 2-(4-fluorophenoxy)-2-methyl-N-(4-(2-methylpyrimidin-5-yl)phenyl)propenamide], the EC50 was greater than 5000 nM.
The result for `CC(C)(Oc1ccc(F)cc1)C(=O)Nc1ccc(-c2ccc(C(=O)N3CCOCC3)cc2)cc1` [Example 27, 2-(4-fluorophenoxy)-2-methyl-N-(4′-(morpholine-4-carbonyl)-[1,1′-biphenyl]-4-yl)propenamide] reads 1000 to 5000 nM; that for `CCCCN(C(=O)C(C)(C)Oc1ccc(F)cc1)c1ccc(-c2ccc(COC)cc2)cc1` [Example 28, N-butyl-2-(4-fluorophenoxy)-N-(4′-(methoxymethyl)-[1,1′-biphenyl]-4-yl)-2-methylpropanamide], less than 1000 nM.
The result for `COCc1ccc(-c2ccc(N(CC3CC3)C(=O)C(C)(C)Oc3ccc(F)cc3)cc2)cc1` [Example 29, N-(cyclopropylmethyl)-2-(4-fluorophenoxy)-N-(4′-(methoxymethyl)-[1,1′-biphenyl]-4-yl)-2-methylpropanamide] reads 1000 to 5000 nM.
The value for `CCOc1ncc(-c2ccc(NC(=O)C(C)(C)Oc3ccc(F)cc3)cc2)cn1` [Example 30, N-(4-(2-ethoxypyrimidin-5-yl)phenyl)-2-(4-fluorophenoxy)-2-methylpropanamide] was 1000 to 5000 nM; that for `COCc1ccc(-c2ccc(N(CCO)C(=O)C(C)(C)Oc3ccc(F)cc3)cc2)cc1` [Example 33, 2-(4-fluorophenoxy)-N-(2-hydroxyethyl)-N-(4′-(methoxymethyl)-[1,1′-biphenyl]-4-yl)-2-methylpropanamide] was 1000 to 5000 nM.
For the compound `CC(C)(Oc1ccc(F)cc1)C(=O)Nc1ccc(-c2cnc(C(F)(F)F)nc2)cc1` [Example 38, 2-(4-fluorophenoxy)-2-methyl-/-(4-(2-(trifluoromethyl)pyrimidin-5-yl)phenyl)propenamide], the concentration for a half-maximal effect (EC50) was greater than 5000 nM.
The result for `COCc1ccc(-c2ccc(N(CC(C)(C)O)C(=O)C(C)(C)Oc3ccc(F)cc3)cc2)cc1` [Example 39, 2-(4-fluorophenoxy)-N-(2-hydroxy-2-methylpropyl)-N-(4′-(methoxymethyl)-[1,1′-biphenyl]-4-yl)-2-methylpropanamide] reads 1000 to 5000 nM.
With `COCc1ccc(-c2ccc(NC(=O)C(C)(C)Oc3ccc(F)cc3)nc2)cc1` [Example 40, 2-(4-fluorophenoxy)-N-(5-(4-(methoxymethyl)phenyl)pyridin-2-yl)-2-methylpropanamide], the EC50 was in the range of 1000 to 5000 nM.
On to `CC(C)(Oc1ccc(F)cc1)C(=O)Nc1ccc(-c2ccc(OC3CC3)cc2)cc1` [Example 41, N-(4′-cyclopropoxy-[1,1′-biphenyl]-4-yl)-2-(4-fluorophenoxy)-2-methylpropanamide], for which the EC50 is greater than 5000 nM.
The value for `CC(C)Cc1ccc(-c2ccc(NC(=O)C(C)(C)Oc3ccc(F)cc3)cc2)cc1` [Example 42, 2-(4-fluorophenoxy)-N-(4′-isobutyl-[1,1′-biphenyl]-4-yl)-2-methylpropanamide] was greater than 5000 nM; that for `CC(C)Oc1ccc(-c2ccc(NC(=O)C(C)(C)Oc3ccc(F)cc3)cc2)cc1` [Example 46, 2-(4-fluorophenoxy)-N-(4′-isopropoxy-[1,1′-biphenyl]-4-yl)-2-methylpropanamide] was less than 1000 nM.
The value for `CC(c1ccc(-c2ccc(NC(=O)C(C)(C)Oc3ccc(F)cc3)cc2)cc1)N1CCOCC1` (centres unmarked) [Example 47, 2-(4-fluorophenoxy)-2-methyl-N-(4′-(1-morpholinoethyl)-[1,1′-biphenyl]-4-yl)propanamide] was 1000 to 5000 nM; that for `CCOc1ccc(-c2ccc(NC(=O)C(C)(C)Oc3ccc(F)cc3)cc2)cc1` [Example 51, N-(4′-ethoxy-[1,1′-biphenyl]-4-yl)-2-(4-fluorophenoxy)-2-methylpropanamide] was greater than 5000 nM.
The result for `CC(C)(Oc1ccc(F)cc1)C(=O)Nc1ccc(-c2ccc(S(C)(=O)=O)cc2)cc1` [Example 52, 2-(4-fluorophenoxy)-2-methyl-N-(4′-(methylsulfonyl)-[1,1′-biphenyl]-4-yl)propenamide] reads greater than 5000 nM; that for `COCc1ccc(-c2ccc(NC(=O)C(C)(C)Cc3ccc(F)cc3)cc2)cc1` [Example 55, 3-(4-fluorophenyl)-N-(4′-(methoxymethyl)-[1,1′-biphenyl]-4-yl)-2,2-dimethylpropanamide], less than 1000 nM; that for `COCc1ccc(-c2ccc(NC(=O)C(C)(C)Cc3ccccc3)cc2)cc1` [Example 56, N-(4′-(methoxymethyl)-[1,1′-biphenyl]-4-yl)-2,2-dimethyl-3-phenylpropanamide], 1000 to 5000 nM.
In the case of `CCc1ccc(OC(C)(C)C(=O)Nc2ccc(-c3ccc(COC)cc3)cc2)cc1` [Example 57, 2-(4-ethylphenoxy)-N-(4′-(methoxymethyl)-[1,1′-biphenyl]-4-yl)-2-methylpropanamide], the EC50 is less than 1000 nM.
The value for `COCc1ccc(-c2ccc(NC(=O)C(C)(C)Oc3cccc(C)c3)cc2)cc1` [Example 58, N-(4′-(methoxymethyl)-[1,1′-biphenyl]-4-yl)-2-methyl-2-(m-tolyloxy)propenamide] was less than 1000 nM; that for `COCc1ccc(-c2ccc(NC(=O)C(C)(C)Oc3ccc(Br)cc3)cc2)cc1` [Example 59, 2-(4-bromophenoxy)-N-(4′-(methoxymethyl)-[1,1′-biphenyl]-4-yl)-2-methylpropanamide] was less than 1000 nM; that for `COCc1ccc(-c2ccc(NC(=O)C(C)(C)Oc3ccc(C(C)C)cc3)cc2)cc1` [Example 60, 2-(4-isopropylphenoxy)-N-(4′-(methoxymethyl)-[1,1′-biphenyl]-4-yl)-2-methylpropanamide] was less than 1000 nM.
Turning to `COCc1ccc(-c2ccc(NC(=O)C(C)(C)Oc3cccc(F)c3)cc2)cc1` [Example 62, 2-(3-fluorophenoxy)-N-(4′-(methoxymethyl)-[1,1′-biphenyl]-4-yl)-2-methylpropanamide], the EC50 is less than 1000 nM.
For the compound `COCc1ccc(-c2ccc(NC(=O)C(C)(C)Oc3ccc(F)cc3F)cc2)cc1` [Example 63, 2-(2,4-difluorophenoxy)-N-(4′-(methoxymethyl)-[1,1′-biphenyl]-4-yl)-2-methylpropanamide], the EC50 was less than 1000 nM.
The value for `COCc1ccc(-c2ccc(NC(=O)C(C)(C)Oc3ccccc3C)cc2)cc1` [Example 64, N-(4′-(methoxymethyl)-[1,1′-biphenyl]-4-yl)-2-methyl-2-(o-tolylox)propenamide] was less than 1000 nM; that for `COCc1ccc(-c2ccc(NC(=O)C(C)(C)Oc3cccc(Cl)c3)cc2)cc1` [Example 65, 2-(3-chlorophenoxy)-N-(4′-(methoxymethyl)-[1,1′-biphenyl]-4-yl)-2-methylpropanamide] was less than 1000 nM.
For `COCc1ccc(-c2ccc(NC(=O)C(C)(C)Oc3ccc(OC)cc3)cc2)cc1` [Example 66, N-(4′-(methoxymethyl)-[1,1′-biphenyl]-4-yl)-2-(4-methoxyphenoxy)-2-methylpropanamide], the EC50 was less than 1000 nM.
The result for `COCc1ccc(-c2ccc(NC(=O)C(C)(C)Oc3ccccc3Cl)cc2)cc1` [Example 67, 2-(2-chlorophenoxy)-N-(4′-(methoxymethyl)-[1,1′-biphenyl]-4-yl)-2-methylpropanamide] reads less than 1000 nM; that for `COCc1ccc(-c2ccc(NC(=O)C(C)(C)Oc3cccnn3)cc2)cc1` [Example 69, N-(4′-(methoxymethyl)-[1,1′-biphenyl]-4-yl)-2-methyl-2-(pyridazin-3-yloxy)propenamide], greater than 5000 nM.
As to `COCc1ccc(-c2ccc(NC(=O)C(C)(C)Oc3ccc(C(F)(F)F)cn3)cc2)cc1` [Example 71, N-(4′-(methoxymethyl)-[1,1′-biphenyl]-4-yl)-2-methyl-2-((5-(trifluoromethyl)pyridin-2-yl)oxy)propenamide], the EC50 is greater than 5000 nM.
The value for `CN1CCN(Cc2ccc(-c3ccc(NC(=O)C(C)(C)Oc4ccc(F)cc4)cc3)cc2)CC1` [Example 72, 2-(4-fluorophenoxy)-2-methyl-N-(4′-((4-methylpiperazin-1-yl)methyl)-[1,1′-biphenyl]-4-yl)propanamide] was 1000 to 5000 nM; that for `CN(C)Cc1ccc(-c2ccc(NC(=O)C(C)(C)Oc3ccc(F)cc3)nc2)cc1` [Example 80, N-(5-(4-((dimethylamino)methyl)phenyl)pyridin-2-yl)-2-(4-fluorophenoxy)-2-methylpropanamide] was 1000 to 5000 nM; that for `CC(C)(Oc1ccc(F)cc1)C(=O)Nc1ccc(-c2ccc(CN3CCOCC3)cc2)cn1` [Example 81, 2-(4-fluorophenoxy)-2-methyl-N-(5-(4-(morpholinomethyl)phenyl)pyridin-2-yl)propanamide] was less than 1000 nM.
With `CCCc1ccc(-c2ccc(NC(=O)C(C)(C)Oc3ccc(F)cc3)cc2)cc1` [Example 84, 2-(4-fluorophenoxy)-2-methyl-N-(4′-propyl-[1,1′-biphenyl]-4-yl)propanamide], the EC50 was greater than 5000 nM.
Consider `CCOCc1ccc(-c2ccc(NC(=O)C(C)(C)Oc3ccc(F)cc3)cc2)cc1` [Example 86, N-(4′-(ethoxymethyl)-[1,1′-biphenyl]-4-yl)-2-(4-fluorophenoxy)-2-methylpropanamide], for which the EC50 is less than 1000 nM.
In the case of `CC(C)(Oc1ccc(F)cc1)C(=O)Nc1ccc(-c2ccc3c(c2)OCO3)cc1` [Example 88, N-(4-(benzo[d][1,3]dioxol-5-yl)phenyl)-2-(4-fluorophenoxy)-2-methylpropanamide], the EC50 lay in the range of 1000 to 5000 nM.
The result for `CC(C)(C)OCc1ccc(-c2ccc(NC(=O)C(C)(C)Oc3ccc(F)cc3)cc2)cc1` [Example 89, N-(4′-(tert-butoxymethyl)-[1,1′-biphenyl]-4-yl)-2-(4-fluorophenoxy)-2-methylpropanamide] reads less than 1000 nM; that for `CCCc1ccc(-c2ccc(NC(=O)C(C)(C)Oc3ccc(F)cc3)cc2)cn1` [Example 91, 2-(4-fluorophenoxy)-2-methyl-N-(4-(6-propylpyridin-3-yl)phenyl)propanamide], 1000 to 5000 nM.
In the case of `COCc1ccc(-c2ccc(NC(=O)C(C)(C)Oc3ccc(F)cc3)cc2)cc1F` [Example 93, N-(3′-fluoro-4′-(methoxymethyl)-[1,1′-biphenyl]-4-yl)-2-(4-fluorophenoxy)-2-methylpropanamide], the EC50 is greater than 5000 nM.

For the origin of these results see patent publication US20240132450A1, “MODULATORS OF G PROTEIN-COUPLED RECEPTOR 88” (ACADIA Pharmaceuticals Inc., priority 2020, published 2024).
